Activity, Drug uptake and viability data for three compounds are collected here from ChEMBL document CHEMBL5316331, “Modulating Cytotoxicity with Lego-like Chemistry: Upgrading Mitochondriotropic Antioxidants with Prototypical Cationic Carrier Bricks” (J Med Chem, 2023).

The source made the active and inactive calls. The calls are words filed in the database; no cut-off is given here.

Data set [1] deals with SH-SY5Y. Briefly: Effect on cell death pathway in human SH-SY5Y cells assessed as increase in late apoptotic cells at 50 uM incubated for 24 hrs by Annexin V-FITC/PI staining based microscopy. The class given is functional.
Data set [2] concerns SH-SY5Y. Briefly: Effect on cell morphology in human SH-SY5Y cells assessed as reduction in cell body at 100 uM incubated for 24 hrs by Phase-contrast microscopy. The class given is functional, cell-based.
Data set [3] has as its system SH-SY5Y. Briefly: Effect on cell death pathway in human SH-SY5Y cells assessed as increase in early apoptotic cells at 100 uM incubated for 24 hrs by Annexin V-FITC/PI staining based microscopy. The class given is functional.
Data set [4] has as its system SH-SY5Y. Briefly: Effect on cell mitochondrial mass in human SH-SY5Y cells assessed as reduction on mitochondrial mass at 50 uM incubated for 24 hrs by mito-tracker green dye based flow cytometry. The data set is classed as functional. More on the design: scale not given: the % may be the effect or the level left. On the technique in general: A flow cytometer gives signals particle by particle.

In data set [5] the test system is SH-SY5Y. Description: Effect on cell morphology in human SH-SY5Y cells assessed as reduction in neurite at 100 uM incubated for 24 hrs by Phase-contrast microscopy. The class given is functional, cell-based.
For data set [6], the system named is SH-SY5Y. Description: Effect on cell morphology in human SH-SY5Y cells assessed as reduction in neurite at 50 uM incubated for 24 hrs by Phase-contrast microscopy. The class given is functional, cell-based.
Data set [7] deals with SH-SY5Y. Briefly: Effect on cell death pathway in human SH-SY5Y cells assessed as increase in necrotic cells at 50 uM incubated for 24 hrs by Annexin V-FITC/PI staining based microscopy. The class given is functional.
Data set [8] has as its system SH-SY5Y. Briefly: Effect on cell death pathway in human SH-SY5Y cells assessed as increase in necrotic cells at 100 uM incubated for 24 hrs by Annexin V-FITC/PI staining based microscopy. The data set is classed as functional.
Data set [9] concerns SH-SY5Y. Briefly: Effect on cell morphology in human SH-SY5Y cells assessed as reduction in cell body at 50 uM incubated for 24 hrs by Phase-contrast microscopy. The data set is classed as functional, cell-based.
Data set [10] relates to SH-SY5Y. Briefly: Effect on cell death pathway in human SH-SY5Y cells assessed as increase in late apoptotic cells at 100 uM incubated for 24 hrs by Annexin V-FITC/PI staining based microscopy. The data set is classed as functional.
Data set [11] has as its system SH-SY5Y. Description: Effect on cell death pathway in human SH-SY5Y cells assessed as increase in early apoptotic cells at 50 uM incubated for 24 hrs by Annexin V-FITC/PI staining based microscopy. The class given is functional.
Data set [12] has as its system SH-SY5Y. Description: Cytotoxicity against human SH-SY5Y cells at > 10 uM incubated for 48 hrs. The data set is classed as toxicity, cell-based.
For data set [13], the system named is SH-SY5Y. Description: Neuroprotective activity against H2O2-induced human SH-SY5Y cells assessed as increase in cell viability at 50 uM preincubated for 30 mins followed by H2O2 addition and measured after 24 hrs by SRB assay. As to conditions: time 24.5 hrs. The class given is functional, cell-based. (In general: In SRB staining, fixed cells bind dye roughly in proportion to their protein.)

A short description of data set [14]: Drug uptake in C57BL/6J mouse liver mitochondria at 5 uM in presence of FCCP by UPLC analysis. The class given is ADME.
Data set [15] concerns SH-SY5Y. Briefly: Cytotoxicity against human SH-SY5Y cells assessed as increase in cell viability at 10 to 100 uM incubated for 24 hrs. The class given is toxicity, cell-based. As to conditions: dose 10-100 µM.
The test system of data set [16] is SH-SY5Y. Description: Antioxidant activity against human SH-SY5Y cells assessed as effect on cellular OCR at 10 uM incubated for 24 hrs followed by addition of oligomycin/FCCP/antimycin A /rotenone by Cell Mito stress assay based seahorse XF96 flux analyzer. The data set is classed as functional.
A short description of data set [17]: Drug uptake in C57BL/6J mouse liver mitochondria at 5 uM in presence of rotenone by UPLC analysis. The data set is classed as ADME.
Data set [18] relates to SH-SY5Y. Description: Antioxidant activity against human SH-SY5Y cells assessed as effect on cellular OCR at 50 uM incubated for 24 hrs followed by addition of oligomycin/FCCP/antimycin A /rotenone by Cell Mito stress assay based seahorse XF96 flux analyzer. The data set is classed as functional.
A short description of data set [19]: Cytotoxicity against human HepG2 cells assessed as cell viability incubated for 24 hrs. As to conditions: read-out: Activity. The class given is toxicity, cell-based.
A short description of data set [20]: Cytotoxicity against human SH-SY5Y cells assessed as cell viability incubated for 24 hrs. As to conditions: read-out: Activity. The data set is classed as toxicity, cell-based.
A further data set relates to HepG2. Briefly: Cytotoxicity against human HepG2 cells assessed as increase in cell viability at 10 to 100 uM incubated for 24 hrs. The data set is classed as toxicity, cell-based. As to conditions: hepg2, 24 h, dose 10-100 µM.
A short description of data set [21]: Drug uptake in C57BL/6J mouse liver mitochondria at 5 uM in presence of succinate by UPLC analysis. The data set is classed as ADME.
For data set [22], the system named is SH-SY5Y. Briefly: Neuroprotective activity against H2O2-induced human SH-SY5Y cells assessed as increase in cell viability at 10 uM preincubated for 30 mins followed by H2O2 addition and measured after 24 hrs by SRB assay. The class given is functional, cell-based. The following applies: time 24.5 hrs.
The test system of data set [23] is SH-SY5Y. Briefly: Cytotoxicity against human SH-SY5Y cells incubated for 48 hrs. The class given is toxicity, cell-based.
Data set [24] deals with SH-SY5Y. Briefly: Antioxidant activity against human SH-SY5Y cells assessed as increase in basal OCR at 10 uM incubated for 24 hrs followed by addition of oligomycin/FCCP/antimycin A /rotenone by Cell Mito stress assay based seahorse XF96 flux analyzer. The class given is functional.
Data set [25] has as its system SH-SY5Y. Briefly: Antioxidant activity against human SH-SY5Y cells assessed as increase in maximal respiration at 50 uM incubated for 24 hrs followed by addition of oligomycin/FCCP/antimycin A /rotenone by Cell Mito stress assay based seahorse XF96 flux analyzer. The data set is classed as functional.
Data set [26] relates to SH-SY5Y. Briefly: Antioxidant activity against human SH-SY5Y cells assessed as increase in basal respiration at 10 uM incubated for 24 hrs followed by addition of oligomycin/FCCP/antimycin A /rotenone by Cell Mito stress assay based seahorse XF96 flux analyzer. The data set is classed as functional.
Data set [27] relates to SH-SY5Y. Briefly: Antioxidant activity against human SH-SY5Y cells assessed as increase in spare respiratory capacity at 50 uM incubated for 24 hrs followed by addition of oligomycin/FCCP/antimycin A /rotenone by Cell Mito stress assay based seahorse XF96 flux analyzer. The data set is classed as functional.
The test system of data set [28] is SH-SY5Y. Description: Antioxidant activity against human SH-SY5Y cells assessed as increase in maximal respiration at 10 uM incubated for 24 hrs followed by addition of oligomycin/FCCP/antimycin A /rotenone by Cell Mito stress assay based seahorse XF96 flux analyzer. The data set is classed as functional.
The test system of data set [29] is SH-SY5Y. Briefly: Antioxidant activity against human SH-SY5Y cells assessed as increase in spare respiratory capacity at 10 uM incubated for 24 hrs followed by addition of oligomycin/FCCP/antimycin A /rotenone by Cell Mito stress assay based seahorse XF96 flux analyzer. The data set is classed as functional.
The test system of data set [30] is SH-SY5Y. Briefly: Antioxidant activity against human SH-SY5Y cells assessed as increase in ATP production-linked respiration at 50 uM incubated for 24 hrs followed by addition of oligomycin/FCCP/antimycin A /rotenone by Cell Mito stress assay based seahorse XF96 flux analyzer. The class given is functional.
Data set [31] relates to SH-SY5Y. Briefly: Antioxidant activity against human SH-SY5Y cells assessed as increase in basal ECAR at 10 uM incubated for 24 hrs followed by addition of oligomycin/FCCP/antimycin A /rotenone by Cell Mito stress assay based seahorse XF96 flux analyzer. The class given is functional.
Data set [32] relates to SH-SY5Y. Description: Antioxidant activity against human SH-SY5Y cells assessed as increase in ATP production-linked respiration at 10 uM incubated for 24 hrs followed by addition of oligomycin/FCCP/antimycin A /rotenone by Cell Mito stress assay based seahorse XF96 flux analyzer. The data set is classed as functional.
The subject of data set [33] is SH-SY5Y. Briefly: Antioxidant activity against human SH-SY5Y cells assessed as increase in basal respiration at 50 uM incubated for 24 hrs followed by addition of oligomycin/FCCP/antimycin A /rotenone by Cell Mito stress assay based seahorse XF96 flux analyzer. The class given is functional.

For `N#CC(C#N)=NNc1cccc(Cl)c1` [CARBONYL CYANIDE M-CHLOROPHENYLHYDRAZONE], the outcome with SH-SY5Y [1], in the data set with SH-SY5Y [2], in the data set with SH-SY5Y [3], with SH-SY5Y [5], in the data set with SH-SY5Y [6] and in the data set with SH-SY5Y [7] was Active. In addition, the result in the data set on SH-SY5Y [8], in the data set on SH-SY5Y [9], in the data set with SH-SY5Y [10] and in the data set with SH-SY5Y [11] was Active. In the data set on SH-SY5Y [4], the Activity was found to be 77.4%.

As to `CS(=O)(=O)[O-].Cn1cc[n+](CCCCCCCCCCNC(=O)/C=C/c2ccc(O)c(O)c2)c1`, the Activity entry in the data set on SH-SY5Y [12] is given as “Toxic”; in the data set with SH-SY5Y [15], “Non-Toxic”; in the data set with HepG2, “Non-Toxic”. The outcome in the data set with SH-SY5Y [13], in the data set with SH-SY5Y [16], with SH-SY5Y [18] and in the data set with SH-SY5Y [22] was inactive. Moreover, the Drug uptake entry in data set [14] is “Active”; in [17], “Not Active”; in data set [21], ~ 25%. For the same compound, the viability at 24 h in data set [19] and in [20] was at least 85% each time.

Take `CS(=O)(=O)[O-].Cc1cc[n+](CCCCCCCCCCNC(=O)/C=C/c2ccc(O)c(O)c2)cc1`: the Activity result with SH-SY5Y [23], in the data set with SH-SY5Y [15] and in the data set with HepG2 was “Non-Toxic” throughout. In addition, the result with SH-SY5Y [24], with SH-SY5Y [25], with SH-SY5Y [26], in the data set with SH-SY5Y [27], in the data set with SH-SY5Y [28] and with SH-SY5Y [29] was Active. In addition, the result in the data set with SH-SY5Y [30], with SH-SY5Y [31], with SH-SY5Y [32] and in the data set on SH-SY5Y [33] was Active. Besides, the outcome in the data set with SH-SY5Y [13] and in the data set on SH-SY5Y [22] was inactive. Besides, the Drug uptake entry was “Active” in data set [14], “Not Active” in data set [17] and ~ 25% in [21]. For the same compound, the viability at 24 h in [19] and in data set [20] was at least 85% in each case.
